From patent publication US20250375450A1, “SMARCA2/4 INHIBITION AS A STRATEGY TO TREAT TUMORS THAT HARBOR ABERRANT BAF ASSEMBLIES” (BOARD OF REGENTS, THE UNIVERSITY OF TEXAS SYSTEM, priority 2022, published 2025)
Entries after “also recorded” stand apart in the source; their conditions may differ.

Tests used:
[1] = system: FOXO1 expression in RH41 cells; assay: Immunoblot of oncogenic transcription factor levels; type: cell-based; conditions: 4 and 12 hrs of treatment
Excerpt: (§1) FIG. 12A-D show representative data illustrating that the assembly of BAF complex is perturbed by AT-301 inhibitor without perturbing oncogenic fusion protein levels. Referring to FIG. 12A and FIG. 12B, immunoblots of RH41 (FIG. 12A) and ES7 (FIG. 12B) cells after 4 and 12 hrs of treatment with AT-301 or DMSO. FOXO1 and FLI1 expression remains unchanged upon AT-301 treatment. Referring to FIG. 12C and FIG. 12D, gel filtration chromatography of ES3 (FIG. 12C) and RH41 (FIG. 12D) cell nuclear lysates after BAF-X-1 treatment are shown. […]
(§2) Next, whether the levels of oncogenic transcription factors in RH41 and ES7 cells change upon treatment with AT-301 was tested. Harvested cells were lysed in NP-40 lysis buffer (Thermo Scientific, J60766) supplemented with protease and phosphatase inhibitor (Halt Protease and phosphatase inhibitor cocktail (Thermo Scientific). Total protein was quantified using Bradford assay (Biorad), and 20 μg of it was denatured and separated on pre-cast tris-acetate or tris-glycine gels (Invitrogen). The protein was then transferred to nitrocellulose membranes (Cytiva) and subsequently probed using primary and secondary antibodies. The signal was detected using Clarity and Clarity Max ECL substrates (Biorad) and imaged on Biorad ChemiDoc).

[2] = system: FLI1 expression in ES7 cells; assay: as above; type: cell-based; conditions: 4 and 12 hrs of treatment
Excerpt: as §1, §2

SMARCA2 = target: T1, SMARCA2 (Homo sapiens, UniProt P51531); assay: ATPase activity of SMARCA2 on different DNA/chromatin substrates (enzyme-coupled phosphate release assay); type: biochemical; conditions: 5 μM AT-301; 147 bp nucleosomal DNA, 29 bp duplex DNA, NCP
T1 construct: The SMARCA2-1 gene (amino acids 437-1493) encompassing all domains; made in house; host or cells: expiSF9 insect cells (baculovirus, pFASTBac1)
Excerpt: FIG. 9A-C show representative data illustrating that AT-301 attenuates the ATPase activity of SMARCA2 in different DNA/chromatin substrates.
In brief, the disclosed ATPase assay is based on the inorganic phosphate (Pi) release from the enzymatic reaction, wherein the substrate 2-amino-6-mercapto-7-methylpurine ribose (MESG) is converted by purine phosphorylase (PNP) to ribose 1-phosphate and 2-amino-6-mercapto-7-methylpurine. This conversion changes the spectrophotometric shift of MSEG absorbance from 330 nm to 360 nm (FIG. 1C and FIG. 1D).
SMARCA2 can interact with nucleosomal, extra nucleosomal DNA, and a DNA wrapped around the histone octamer. These substrates were prepared, and the ATPase activity of SMARCA2 on these substrates were evaluated in the presence and absence of AT-301. Specifically, as shown in FIG. 9A-C, mononucleosome core particles (NCP) were reconstituted from purified histone octamer and 147 bp widom nucleosomal DNA. An electromobility shift assay (EMSA) was used to monitor the direct binding of SMARCA2 to NCP. […] The ATPase activity of SMARCA2 was also evaluated on alternative substrates (a 29-mer duplex DNA, 147 bp nucleosomal DNA, and reconstituted NCP).

T1 sequence (P51531 437-1493): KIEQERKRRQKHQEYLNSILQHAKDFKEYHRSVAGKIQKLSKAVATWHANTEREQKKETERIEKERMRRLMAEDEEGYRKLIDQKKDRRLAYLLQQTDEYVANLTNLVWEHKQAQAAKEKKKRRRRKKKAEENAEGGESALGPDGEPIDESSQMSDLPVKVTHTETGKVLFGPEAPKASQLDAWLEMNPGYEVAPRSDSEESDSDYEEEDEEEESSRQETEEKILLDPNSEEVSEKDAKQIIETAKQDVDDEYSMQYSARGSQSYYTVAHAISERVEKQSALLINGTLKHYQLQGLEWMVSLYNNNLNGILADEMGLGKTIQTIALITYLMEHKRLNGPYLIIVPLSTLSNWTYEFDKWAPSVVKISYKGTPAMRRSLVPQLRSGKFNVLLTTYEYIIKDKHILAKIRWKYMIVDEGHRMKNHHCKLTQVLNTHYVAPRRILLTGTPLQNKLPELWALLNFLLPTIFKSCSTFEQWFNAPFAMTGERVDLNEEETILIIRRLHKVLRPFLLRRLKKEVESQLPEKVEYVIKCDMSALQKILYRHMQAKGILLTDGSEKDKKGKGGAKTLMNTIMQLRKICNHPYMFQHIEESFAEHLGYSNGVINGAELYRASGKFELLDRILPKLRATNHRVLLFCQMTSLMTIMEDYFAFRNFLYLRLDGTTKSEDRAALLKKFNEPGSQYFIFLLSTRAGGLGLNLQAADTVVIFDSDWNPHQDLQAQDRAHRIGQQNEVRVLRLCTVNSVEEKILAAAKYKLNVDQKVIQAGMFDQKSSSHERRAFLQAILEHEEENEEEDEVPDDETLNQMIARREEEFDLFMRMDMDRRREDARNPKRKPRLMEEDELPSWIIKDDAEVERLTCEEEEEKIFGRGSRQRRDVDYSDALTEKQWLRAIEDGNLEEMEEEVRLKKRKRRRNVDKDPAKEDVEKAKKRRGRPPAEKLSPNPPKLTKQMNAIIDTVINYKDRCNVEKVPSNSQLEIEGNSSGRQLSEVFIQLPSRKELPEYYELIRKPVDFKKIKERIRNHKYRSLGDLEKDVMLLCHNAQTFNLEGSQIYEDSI

**Q.** `Clc1ccc(CNc2nc(NC3CCCC3)nc3ccccc23)cc1Cl` [AT-301, N^2-cyclopentyl-N^4-(3,4-dichlorobenzyl)quinazoline-2,4-diamine] was tested. Which “Expression of oncogenic transcription factor (FOXO1)” value [1] did it give?
**A.** does not alter the expression

**Q.** What about the “Expression of oncogenic transcription factor (FLI1)” value [2] of the same compound?
**A.** does not alter the expression

**Q.** What about the “ATPase activity of SMARCA2 on different substrates” value (SMARCA2) of the same compound?
**A.** uniformly reduced; also recorded: significantly attenuated
